Test results taken from article PMC10865871, “Homologous acetone carboxylases select Fe(II) or Mn(II) as the catalytic cofactor” (mBio, 2023).

How the values were obtained:
[1] = molecular target: T1, A. aromaticum AC (acetone carboxylase, (αβγ)2) (Aromatoleum aromaticum, UniProt Q5P1N4+Q5P1N5); assay: […] Moessbauer; EPR of Mn(II)-reconstituted enzyme; type: binding; details: 1 mM AMP, pH 7.6, 57Fe(II)-reconstituted, 80 K (Moessbauer); 10 mM AMP, 1 mM MgCl2 (EPR)
T1 construct: gene acxB; recombinant in E. coli BL21(DE3), pET-Duet vectors; N-terminal 6-His tag on beta subunit; (αβγ)2 heterohexamer; with Acetone carboxylase gamma subunit
T1 sequence (Q5P1N4 1-774): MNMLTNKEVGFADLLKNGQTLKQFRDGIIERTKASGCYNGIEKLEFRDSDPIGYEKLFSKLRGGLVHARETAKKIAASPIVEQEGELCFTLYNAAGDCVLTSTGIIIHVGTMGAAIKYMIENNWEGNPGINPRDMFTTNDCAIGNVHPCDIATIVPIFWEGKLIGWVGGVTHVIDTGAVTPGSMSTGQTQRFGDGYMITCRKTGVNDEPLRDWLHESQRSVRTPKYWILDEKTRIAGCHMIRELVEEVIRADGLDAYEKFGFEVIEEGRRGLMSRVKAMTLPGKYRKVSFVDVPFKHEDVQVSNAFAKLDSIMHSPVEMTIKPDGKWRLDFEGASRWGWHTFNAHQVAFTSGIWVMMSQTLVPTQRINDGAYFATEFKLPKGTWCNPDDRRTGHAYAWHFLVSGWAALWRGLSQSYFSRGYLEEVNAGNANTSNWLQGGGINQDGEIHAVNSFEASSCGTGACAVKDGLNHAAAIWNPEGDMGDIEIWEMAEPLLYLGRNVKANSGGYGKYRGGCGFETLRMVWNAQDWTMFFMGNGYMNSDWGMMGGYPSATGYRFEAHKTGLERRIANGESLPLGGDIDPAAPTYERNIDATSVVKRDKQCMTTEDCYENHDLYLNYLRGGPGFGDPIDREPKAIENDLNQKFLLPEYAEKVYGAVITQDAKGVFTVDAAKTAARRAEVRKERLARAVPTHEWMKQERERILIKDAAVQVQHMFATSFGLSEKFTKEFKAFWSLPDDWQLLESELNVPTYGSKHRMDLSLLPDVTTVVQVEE
T1 sequence (Q5P1N5 1-716): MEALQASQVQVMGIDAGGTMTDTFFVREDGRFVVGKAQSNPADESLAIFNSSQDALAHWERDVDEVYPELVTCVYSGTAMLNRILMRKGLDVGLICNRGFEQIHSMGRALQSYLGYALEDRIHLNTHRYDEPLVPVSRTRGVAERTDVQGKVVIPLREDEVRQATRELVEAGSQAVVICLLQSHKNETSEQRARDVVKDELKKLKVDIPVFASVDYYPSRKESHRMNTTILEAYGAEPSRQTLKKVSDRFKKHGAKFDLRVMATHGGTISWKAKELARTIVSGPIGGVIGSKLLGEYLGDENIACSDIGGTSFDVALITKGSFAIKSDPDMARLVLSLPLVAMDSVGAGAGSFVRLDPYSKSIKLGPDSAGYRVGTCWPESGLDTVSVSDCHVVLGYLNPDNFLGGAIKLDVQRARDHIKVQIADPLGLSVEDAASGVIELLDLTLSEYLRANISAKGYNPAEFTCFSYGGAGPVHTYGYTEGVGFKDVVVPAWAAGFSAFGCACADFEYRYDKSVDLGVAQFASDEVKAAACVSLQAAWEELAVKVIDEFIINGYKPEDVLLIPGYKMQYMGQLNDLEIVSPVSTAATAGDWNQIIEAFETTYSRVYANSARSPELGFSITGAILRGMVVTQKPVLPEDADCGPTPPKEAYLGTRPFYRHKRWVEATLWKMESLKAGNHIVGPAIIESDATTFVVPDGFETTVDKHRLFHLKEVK
T1 sequence (Q5P1N3 1-168 partner): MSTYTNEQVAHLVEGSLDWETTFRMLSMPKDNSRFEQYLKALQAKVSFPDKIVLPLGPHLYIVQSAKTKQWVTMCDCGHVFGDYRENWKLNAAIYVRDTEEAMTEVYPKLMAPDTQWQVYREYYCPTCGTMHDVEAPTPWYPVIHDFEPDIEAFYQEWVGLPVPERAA

[2] = molecular target: T2, X. autotrophicus AC (acetone carboxylase, (αβγ)2) (Xanthobacter versatilis, UniProt Q8RM03+Q8RM04); assay: EPR of active-site Mn(II); […] Moessbauer; type: binding; details: 10 mM AMP, 1 mM MgCl2, pH 7.6, 12 K (EPR); Mn(II)-bound enzyme
T2 construct: gene acxB; recombinant in E. coli BL21(DE3), pET-Duet vectors; N-terminal 6-His tag on beta subunit; (αβγ)2 heterohexamer; AMP site in beta, metal site in alpha; with Acetone carboxylase gamma subunit
T2 sequence (Q8RM03 1-776): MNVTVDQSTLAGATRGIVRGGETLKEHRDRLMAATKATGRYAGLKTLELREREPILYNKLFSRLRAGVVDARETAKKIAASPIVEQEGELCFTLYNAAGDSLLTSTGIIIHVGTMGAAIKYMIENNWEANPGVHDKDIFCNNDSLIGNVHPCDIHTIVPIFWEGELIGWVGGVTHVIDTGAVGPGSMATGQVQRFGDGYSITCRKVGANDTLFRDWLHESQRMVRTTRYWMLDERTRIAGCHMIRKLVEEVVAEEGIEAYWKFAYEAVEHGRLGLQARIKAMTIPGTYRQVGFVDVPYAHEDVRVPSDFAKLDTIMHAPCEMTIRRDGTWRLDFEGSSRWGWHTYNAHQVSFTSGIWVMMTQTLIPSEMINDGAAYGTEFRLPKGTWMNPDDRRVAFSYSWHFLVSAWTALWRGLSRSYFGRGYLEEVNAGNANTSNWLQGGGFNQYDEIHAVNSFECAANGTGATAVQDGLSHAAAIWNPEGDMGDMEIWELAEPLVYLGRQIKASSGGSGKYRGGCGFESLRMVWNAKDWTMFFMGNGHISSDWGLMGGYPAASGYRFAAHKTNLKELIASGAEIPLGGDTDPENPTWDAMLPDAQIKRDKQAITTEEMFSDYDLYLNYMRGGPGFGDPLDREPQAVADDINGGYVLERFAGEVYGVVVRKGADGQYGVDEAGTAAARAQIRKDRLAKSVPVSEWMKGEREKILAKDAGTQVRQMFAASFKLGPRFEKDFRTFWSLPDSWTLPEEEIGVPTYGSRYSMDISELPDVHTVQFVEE
T2 sequence (Q8RM04 1-717): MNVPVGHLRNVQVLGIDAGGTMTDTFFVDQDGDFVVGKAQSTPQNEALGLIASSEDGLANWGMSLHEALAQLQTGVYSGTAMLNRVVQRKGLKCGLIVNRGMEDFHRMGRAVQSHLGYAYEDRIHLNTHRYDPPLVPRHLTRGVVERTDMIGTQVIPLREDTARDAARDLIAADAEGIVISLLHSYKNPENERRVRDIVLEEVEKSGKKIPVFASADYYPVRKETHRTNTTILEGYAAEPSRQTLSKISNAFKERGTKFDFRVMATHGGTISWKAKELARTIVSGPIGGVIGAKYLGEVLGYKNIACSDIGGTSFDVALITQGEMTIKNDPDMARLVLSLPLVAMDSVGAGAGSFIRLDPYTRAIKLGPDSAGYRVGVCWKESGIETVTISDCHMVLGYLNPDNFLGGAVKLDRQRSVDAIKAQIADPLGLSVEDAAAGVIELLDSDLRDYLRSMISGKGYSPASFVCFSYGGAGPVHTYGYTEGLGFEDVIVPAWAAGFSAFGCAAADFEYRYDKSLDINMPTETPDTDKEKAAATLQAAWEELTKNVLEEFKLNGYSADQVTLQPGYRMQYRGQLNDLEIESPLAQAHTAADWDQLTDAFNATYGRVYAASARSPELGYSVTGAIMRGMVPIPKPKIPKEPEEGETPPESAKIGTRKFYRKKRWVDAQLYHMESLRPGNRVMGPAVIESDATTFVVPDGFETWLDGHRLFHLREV
T2 sequence (Q8RM02 2-168 partner): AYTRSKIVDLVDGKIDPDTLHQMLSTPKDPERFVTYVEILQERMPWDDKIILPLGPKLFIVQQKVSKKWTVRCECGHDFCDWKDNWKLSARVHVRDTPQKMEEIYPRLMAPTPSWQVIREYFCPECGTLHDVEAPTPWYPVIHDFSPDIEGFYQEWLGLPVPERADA

With `Nc1ncnc2c1ncn2[C@@H]1O[C@H](COP(=O)(O)O)[C@@H](O)[C@H]1O` [AMP] the “57Fe Moessbauer; EPR of Mn(II)-reconstituted enzyme” value [1] was “three of which (blue, red, and orange) were affected by the addition of AMP” and the “EPR of active-site Mn(II); 57Fe Moessbauer” value [2] was “Upon the addition of MgAMP, the apparent Mn(II) signal sharpened and intensified”.
